Laboratory results published in patent US8618082B2, “Lupeol anti-tumor agent and uses thereof” (Wisconsin Alumni Research Foundation, priority 2004, dated 2013).

Experiments:
Akt = assay: TPA-induced phosphorylation of Akt at Thr308 (western blot); type: in vivo, mouse; conditions: TPA, 6 h post treatment
Protocol: (§1) FIG. 5. Inhibitory effect of Lupeol on TPA-induced activation of PI3K and phosphorylation of Akt in CD-1 mice: At different times after treatment, the animals were sacrificed, epidermal protein lysate was prepared, and PI3K and phosphorylated (Thr^308) Akt and total Akt protein expression were determined. The immunoblots shown here are representative of three independent experiments with similar results. The values above each lane indicate relative density of the band normalized to β-actin.
(§2) The animals were shaved on the dorsal side of the skin, divided into four groups and treated topically on the shaved area with either 0.4 ml vehicle (acetone), or TPA (3.2 nmol/0.4 ml acetone/animal, v/v), or Lupeol (1 or 2 mg/0.2 ml acetone/animal, w/v) followed 30 min later with TPA (3.2 nmol/0.2 ml acetone/animal). Animals were sacrificed at different times point i.e. 6, 12, 24 and 48 h post TPA treatment. […]
(§3) Epidermis from the whole skin was separated as described earlier (Katiyar et al., 1999) and was homogenized in ice-cold lysis buffer [50 mM Tris-HCl, 150 mM NaCl, 1 mM EGTA, 1 mM EDTA, 20 mM NaF, 100 mM Na3VO4, 0.5% NP-40, 1% Triton X-100, 1 mM PMSF (pH 7.4)] with freshly added protease inhibitor cocktail, Protease Inhibitor Cocktail Set III (Calbiochem, La Jolla, Calif., USA). […] The protein content in the lysates was measured by DC BioRad assay (BioRad Laboratories, Hercules, Calif.) as per the manufacturer's protocol.
(§4) For western blot analysis, 40 μg of the protein was resolved over 8-12% polyacrylamide gels and transferred to a nitrocellulose membrane. […] This was followed by incubation with anti-mouse or anti-rabbit secondary antibody horse-radish peroxidase (Amersham Life Sciences, Inc., USA) for 1 h and then washed several times and detected by chemiluminescence ECL kit, (Amersham Life Sciences, Inc., USA) and autoradiography using XAR-5 film obtained from Eastman Kodak Co. (Rochester, N.Y., USA). […]

epidermal ODC protein = assay: TPA-induced epidermal ODC protein expression (western blot); type: in vivo, mouse; conditions: TPA topical
Protocol: (§5) FIG. 4. Inhibitory effect of Lupeol on TPA-induced epidermal ODC, iNOS and COX-2 protein expression in CD-1 mice: At different times after treatment, the animals were sacrificed, epidermal protein lysate was prepared, and ODC and COX-2 protein expression were determined. Equal loading of protein was confirmed by stripping the immunoblot and reprobing it for β-actin. The immunoblots shown here are representative of three independent experiments with similar results. The values above each lane indicate relative density of the band normalized to β-actin.
as §2, §3, §4

[1] = test system: catalytic (p110) and regulatory (p85) subunit of PI3K; assay: TPA-induced epidermal PI3K expression (western blot); type: in vivo, mouse
Protocol: as §1
(§6) The animals were shaved on the dorsal side of the skin, divided into four groups and treated topically on the shaved area with either 0.4 ml vehicle (acetone), or TPA (3.2 nmol/0.4 ml acetone/animal, v/v), or Lupeol (1 or 2 mg/0.2 ml acetone/animal, w/v) followed 30 min later with TPA (3.2 nmol/0.2 ml acetone/animal). Animals were sacrificed at different times point i.e. 6, 12, 24 and 48 h post TPA treatment. The epidermis was separated from the whole skin and homogenized in 0.1 M Tris-HCl buffer (pH 7.2) using a Polytron tissue homogenizer (Brinkmann Instruments, Westbury, N.Y., USA) at 100,000×g supernatant, and microsomal fractions were prepared as described earlier (Katiyar and Mukhtar, 1997). The sample of 6 h treatment group was used to assess the ODC activity as this time point has previously been shown for optimal induction of the enzyme (Katiyar er al., 1996).
as §3, with “USA). The homogenate was then centrifuged at 14,000×g for 25 minutes at 4° C. and the supernatant (total cell lysate) was collected, aliquoted and stored at −80° C. For the preparation of nuclear lysate, 0.2 g of the epidermis was homogenized in 1 ml of ice-cold phosphate-buffered saline (pH 7.6) and centrifuged at 12,000×g for 5 min at 4° C.” for “USA).”
as §4

epidermal iNOS protein = assay: TPA-induced epidermal iNOS protein expression (western blot); type: in vivo, mouse; conditions: TPA alone topical
Protocol: as §5, §2, §3, §4

epidermal COX-2 protein = assay: TPA-induced epidermal COX-2 protein expression (western blot); type: in vivo, mouse; conditions: TPA topical, 6 h post treatment
Protocol: as §5, §6
as §3, with “USA). The homogenate was then centrifuged at 14,000×g for 25 minutes at 4° C. and the supernatant (total cell lysate) was collected, aliquoted and stored at −80° C. For the preparation of nuclear lysate, 0.2 g of the epidermis was homogenized in 1 ml of ice-cold phosphate-buffered saline (pH 7.6) and centrifuged at 12,000×g for 5 min at 4° C.” for “USA).”
as §4

CD-1 mouse skin = assay: TPA-induced cutaneous edema, skin punch weight; type: in vivo; conditions: TPA alone, 3.2 nmole/mouse topical
Protocol: Studies from the inventors' laboratory and by other have shown that TPA application to mouse skin results in cutaneous edema (Katiyar et at, 1996; Liang et at, 2002). In the present study, the inventors evaluated the protective effects of topical application of Lupeol in TPA-mediated cutaneous edema in CD-1 mouse. The inventors tested four doses 0.25, 0.5, 1 and 2 mg of Lupeol per animal in the inventors' preliminary studies. […] The CD-1 mice were topically treated with Lupeol (1 and 2 mg/mouse) and 30 min later were topically treated with TPA (3.2 nmole/mouse). […] At least four determinations were made at different dorsal skin sites per mouse in each group. The data represents the mean±SE of eight mice (*p<0.01 vs TPA).
as §6
To assess the inhibitory effect of pre-application of Lupeol on TPA-induced edema, 1 cm-diameter punches of skin from vehicle-, Lupeol-, TPA- or Lupeol- and TPA-treated mice were removed, made free of fat pads, and weighed immediately. After drying for 24 h at 50° C., the skin punches were reweighed, and the loss of water content was determined. The difference in the amount of water gain between the control (vehicle treated) and TPA treated represented the extent of edema induced by TPA, whereas that between the control vehicle and Lupeol plus TPA represented the inhibitory effect of Lupeol. For the hyperplasia study, skin was removed, fixed in 10% formalin, and embedded in paraffin. Vertical sections (5 μm) were cut, mounted on a glass slide, and stained with hematoxylin and eosin.

IKKα protein = assay: TPA-induced activation of IKKα (western blot); type: in vivo, mouse; conditions: TPA topical
Protocol: FIG. 6. Inhibitory effect of Lupeol on TPA-induced activation of IKKα, and phosphorylation and degradation of IκBα in CD-1 mice: At different times after treatment, the animals were sacrificed, epidermal cytosolic was prepared, and protein expression was determined. Equal loading was confirmed by stripping the immunoblot and reprobing it for β-actin. The immunoblots shown here are representative of three independent experiments with similar results. The values above each lane indicate relative density of the band normalized to β-actin.
The animals were shaved on the dorsal side of the skin, divided into four groups and treated topically on the shaved area with either 0.4 ml vehicle (acetone), or TPA (3.2 nmol/0.4 ml acetone/animal, v/v), or Lupeol (1 or 2 mg/0.2 ml acetone/animal, w/v) followed 30 min later with TPA (3.2 nmol/0.2 ml acetone/animal). […]
Epidermis from the whole skin was separated as described earlier (Katiyar et al., 1999) and was homogenized in ice-cold lysis buffer [50 mM Tris-HCl, 150 mM NaCl, 1 mM EGTA, 1 mM EDTA, 20 mM NaF, 100 mM Na3VO4, 0.5% NP-40, 1% Triton X-100, 1 mM PMSF (pH 7.4)] with freshly added protease inhibitor cocktail, Protease Inhibitor Cocktail Set III (Calbiochem, La Jolla, Calif., USA). […] The protein content in the lysates was measured by DC BioRad assay (BioRad Laboratories, Hercules, Calif.) as per the manufacturer's protocol. […]

## CCCCCCCCCCCCCC(=O)O[C@@H]1[C@@H](C)[C@@]2(O)[C@@H](C=C(CO)C[C@]3(O)C(=O)C(C)=C[C@@H]23)[C@@H]2C(C)(C)[C@]12OC(C)=O [TPA, 12-O-tetradecanoyl-phorbol acetate, reference compound]
Akt
  maximum phosphorylation of Akt: 3.8 fold
Epidermal ODC protein
  increase in epidermal ODC protein level vs acetone treated control: 4 fold
[1]; TPA topical
  increase in expression of catalytic (p110) and regulatory (p85) subunit of PI3K: 2 to 3 fold
[1]; TPA, 6 h post treatment
  induction in the expression of catalytic subunit p110: 3 fold
Epidermal iNOS protein
  increase in iNOS protein expression vs vehicle treated controls: 5 fold
Epidermal COX-2 protein
  maximum increase in epidermal COX-2 protein expression vs acetone control: 2.7 fold
CD-1 mouse skin
  Skin punch weight 24 hrs: 23.5 ± 0.5 mg/cm2
  Skin punch weight 48 hrs: 25.5 ± 0.75 mg/cm2
IKKα protein
  increase in the expression of IKKα protein: 5.5 fold
